Results from PMC4954776 (Nature chemical biology, 2013).
Each block holds one compound with its values, some of them ahead of it.

Key:
[1] = molecular target: T1, PERK kinase domain dimerization (Mus musculus, UniProt Q9Z2B5, DEL661-875); assay: Sedimentation velocity analytical ultracentrifugation of PERK kinase domain; assay type: binding, Murine; conditions: saturating concentrations; 40 μM inhibitor, 500 μM ADP with 2 mM MgCl2
T1 sequence (Q9Z2B5 with tags, fused parts or gaps DEL661-875): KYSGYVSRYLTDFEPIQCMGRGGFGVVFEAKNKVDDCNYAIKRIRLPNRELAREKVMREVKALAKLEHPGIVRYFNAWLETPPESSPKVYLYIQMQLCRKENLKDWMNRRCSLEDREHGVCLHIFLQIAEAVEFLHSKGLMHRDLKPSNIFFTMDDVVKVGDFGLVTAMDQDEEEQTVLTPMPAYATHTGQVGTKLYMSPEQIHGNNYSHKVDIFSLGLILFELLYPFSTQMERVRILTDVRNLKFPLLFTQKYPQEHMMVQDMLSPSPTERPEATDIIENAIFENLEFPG

[2] = molecular target: BRAF kinase domain (residues 444 to 723, BRAF16mut) dimerization (Homo sapiens, UniProt P15056, A688R/F667E/I543A/I544S/I551K/K630S/K723G/L588N/L706S/L716E/P722S/Q562R/Q709R/S713E/Y673S); assay type: binding; conditions: 40 μM inhibitor, or 200 μM AMP-PNP / ADP with 200 μM MgCl2; Fig. 5e
[3] = system: RAF family members (ARAF, BRAF, CRAF, KSR1, KSR2) kinase domain dimers; assay: Panel of RAF dimerization BRET biosensors; assay type: cell-based; conditions: for RAFKD dimer induction profile across biosensor panel: dose-response, BRAFKD and CRAFKD acceptor probes, Fig. 2c; for induction of RAF dimerization in kinase inhibitor library screen: collection of 184 compounds, Fig. 5a
[4] = molecular target: BRAFKD/BRAFKD (RlucII-BRAFKD-CAAX / GFP10-BRAFKD-CAAX) (Homo sapiens, UniProt P15056); assay: BRET titration curves, BRAFKD homodimerization biosensor; assay type: cell-based; conditions: Fig. 1c
BRAFKD F595R = BRAFKD F595R (Homo sapiens, UniProt P15056, F595R); assay: BRET saturation curves, BRAF R spine mutant; assay type: cell-based; conditions: Fig. 6c
CRAF homodimers = CRAF homodimers (Homo sapiens, UniProt P04049); assay: BRET biosensor CRAF homodimers; assay type: cell-based; conditions: Fig. 2c
BRAFKD WT / BRAFKD R509H = BRAFKD WT / BRAFKD R509H (Homo sapiens, UniProt P15056, R509H); assay type: cell-based; conditions: 33 nM; Fig. 1e
BRAFKD WT / BRAFKD WT = BRAFKD WT / BRAFKD WT (Homo sapiens, UniProt P15056); assay type: cell-based; conditions: 33 nM; Fig. 1e
BRAF/KSR1 dimers = BRAF/KSR1 dimers (Homo sapiens, UniProt P15056+Q8IVT5); assay: BRET biosensor BRAF/KSR1 dimers; assay type: cell-based; conditions: Fig. 2c
KSR1KD / MEK1 = KSR1KD / MEK1 (Homo sapiens, UniProt Q8IVT5); assay: BRET selectivity assay, KSR1KD/MEK1 pair; assay type: cell-based; conditions: 10 μM; Fig. 4b
BRAF/BRAF dimers = BRAF/BRAF dimers (Homo sapiens, UniProt P15056); assay: Co-immunoprecipitation of full-length BRAF/BRAF dimers; assay type: cell-based; conditions: 10 μM; Fig. 4e
ERK phosphorylation = ERK phosphorylation in RAF-expressing HEK293T cells; assay type: cell-based; conditions: 2 μM, Fig. 4f
CRAFKD / BRAFKD [5] = molecular target: T2, CRAFKD / BRAFKD (Homo sapiens, UniProt P04049+P15056); assay: BRET dose-response, CAAX-boxed CRAFKD/BRAFKD biosensor; assay type: cell-based; conditions: 10 μM; Fig. 4b
CRAFKD / BRAFKD [6] = molecular target: T2, CRAFKD / BRAFKD; assay: High-throughput chemical screen with CRAFKD/BRAFKD biosensor; assay type: cell-based; conditions: 10 μM screening concentration; Fig. 4a
[7] = molecular target: BRAFKD T529M / BRAFKD T529M (Homo sapiens, UniProt P15056, T529M); assay: BRET dose-response, BRAFKD T529M gatekeeper mutant homodimerization; assay type: cell-based; conditions: Fig. 4g
BRAF/CRAF dimers = BRAF/CRAF dimers (Homo sapiens, UniProt P04049+P15056); assay: Co-immunoprecipitation of full-length GFP-CRAF and Flag-BRAF; assay type: cell-based; conditions: SB202190 and SB203580 10 μM; Fig. 4d
[8] = Solubility in aqueous solution; assay type: physicochemical

Chain of KSR1KD / MEK1 (Q8IVT5 602-921): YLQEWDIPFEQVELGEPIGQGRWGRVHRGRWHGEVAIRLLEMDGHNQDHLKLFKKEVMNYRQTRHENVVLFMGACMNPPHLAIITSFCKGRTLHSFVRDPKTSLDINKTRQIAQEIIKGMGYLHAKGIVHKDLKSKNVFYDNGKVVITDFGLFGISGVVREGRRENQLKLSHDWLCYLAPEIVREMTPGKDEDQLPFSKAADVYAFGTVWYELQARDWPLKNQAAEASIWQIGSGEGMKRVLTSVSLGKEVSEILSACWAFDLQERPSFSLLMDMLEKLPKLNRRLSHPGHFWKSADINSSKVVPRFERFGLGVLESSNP
Chain of KSR1KD / MEK1 (Q02750 whole entry partner): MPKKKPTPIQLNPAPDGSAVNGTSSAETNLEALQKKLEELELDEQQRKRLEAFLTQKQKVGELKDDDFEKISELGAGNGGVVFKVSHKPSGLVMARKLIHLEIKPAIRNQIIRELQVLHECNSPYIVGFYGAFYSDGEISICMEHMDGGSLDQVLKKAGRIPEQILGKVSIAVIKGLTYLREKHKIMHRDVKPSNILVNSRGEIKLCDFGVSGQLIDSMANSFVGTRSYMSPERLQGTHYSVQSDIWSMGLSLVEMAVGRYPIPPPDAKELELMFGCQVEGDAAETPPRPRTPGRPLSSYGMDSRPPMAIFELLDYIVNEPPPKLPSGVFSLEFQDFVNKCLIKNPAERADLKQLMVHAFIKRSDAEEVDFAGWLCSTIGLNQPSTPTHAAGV
Chain of CRAF homodimers (P04049 340-648): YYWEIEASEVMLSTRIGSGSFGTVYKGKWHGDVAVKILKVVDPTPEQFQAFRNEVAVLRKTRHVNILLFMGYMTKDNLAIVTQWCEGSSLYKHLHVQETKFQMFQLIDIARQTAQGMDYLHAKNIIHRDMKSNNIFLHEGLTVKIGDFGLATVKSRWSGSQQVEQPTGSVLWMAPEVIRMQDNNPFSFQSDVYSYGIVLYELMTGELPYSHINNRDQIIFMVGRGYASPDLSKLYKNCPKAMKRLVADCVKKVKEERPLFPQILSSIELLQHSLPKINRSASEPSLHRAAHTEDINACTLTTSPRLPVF
Chain of CRAF homodimers (P04049 340-648): as above

SMILES: Nc1ncnc2c1ncn2[C@@H]1O[C@H](COP(=O)(O)OP(=O)(O)O)[C@@H](O)[C@H]1O [ADP]
effect on PERK kinase domain dimerization [1]: weakly promoted dimerization
effect on BRAF kinase domain dimerization relative to apo state [2]: inhibited dimer formation

SMILES: Nc1ncnc2c1ncn2[C@@H]1O[C@H](COP(=O)(O)OP(=O)(O)NP(=O)(O)O)[C@@H](O)[C@H]1O [AMP-PNP]
effect on BRAF kinase domain dimerization relative to apo state [2]: inhibited dimer formation

SMILES: Cc1nc(Nc2ncc(C(=O)Nc3c(C)cccc3Cl)s2)cc(N2CCN(CCO)CC2)n1 [Dasatinib]
induction of RAF dimerization in kinase inhibitor library screen [3]: significant inducers of RAF dimerization

SMILES: Cc1cn(-c2cc(NC(=O)c3ccc(C)c(Nc4nccc(-c5cccnc5)n4)c3)cc(C(F)(F)F)c2)cn1 [Nilotinib]
induction of RAF dimerization in kinase inhibitor library screen [3]: significant inducers of RAF dimerization

SMILES: C[S+]([O-])c1ccc(-c2nc(-c3ccncc3)c(-c3ccc(F)cc3)[nH]2)cc1 (centres unmarked) [SB203580]
ERK activity in RAF transfected cells (ERK phosphorylation): stimulated ERK activity

SMILES: CNC(=O)c1cc(Oc2ccc(NC(=O)Nc3ccc(Cl)c(C(F)(F)F)c3)cc2)ccn1 [Sorafenib]
RAFKD dimer induction profile across biosensor panel [3]: relatively weak RAFKD dimer inducers
solubility in aqueous solution [8]: limited solubility

SMILES: Cn1cc(-c2ccc3c(c2)CCN3C(=O)Cc2cc(F)cc(C(F)(F)F)c2)c2c(N)ncnc21 [close structural analog of GSK2606414, 5-(1-{[3-Fluoro-5-(trifluoromethyl)phenyl]acetyl}-2,3-dihydro-1H-indol-5-yl)-7-methyl-7H-pyrrolo[2,3-d]pyrimidin-4-amine]
effect on PERK kinase domain dimerization [1]: strongly promoted dimerization

Continued, in another order:

RAFKD dimer induction profile across biosensor panel [3]: strong and broad inducers
effect on BRET50 in titration experiments [4]: significantly reduced
dimerization of BRAF R spine mutant (F595R), BRET saturation curves (BRAFKD F595R): promote dimerization
induction of CRAF homodimers (CRAF homodimers): strongly promoted
SMILES: Cc1ccc(NC(=O)c2cccc(C(C)(C)C#N)c2)cc1Nc1ccc2ncn(C)c(=O)c2c1 [AZ-628]

response of R509H mutant biosensor to drug (BRAFKD WT / BRAFKD R509H): insensitive
RAFKD dimer induction profile across biosensor panel [3]: strong and broad inducers
effect on BRET50 in titration experiments [4]: significantly reduced
time at which BRET induction plateaued (BRAFKD WT / BRAFKD WT): ≤ 60 min
time at which activity (BRET induction) could first be detected (BRAFKD WT / BRAFKD WT): 5 min
induction of BRAF/KSR1 dimers (BRAF/KSR1 dimers): strongly induced
SMILES: OCCn1cc(-c2ccc3c(c2)CC/C3=N\O)c(-c2ccncc2)n1 [GDC-0879]

effect on PERK kinase domain dimerization [1]: potently promotes
SMILES: Cn1cc(-c2ccc3c(c2)CCN3C(=O)Cc2cccc(C(F)(F)F)c2)c2c(N)ncnc21 [GSK2606414, 7-Methyl-5-(1-{[3-(trifluoromethyl)phenyl]acetyl}-2,3-dihydro-1H-indol-5-yl)-7H-p yrrolo[2,3-d]pyrimidin-4-amine]

RAFKD dimer induction profile across biosensor panel [3]: relatively weak RAFKD dimer inducers
SMILES: CCCS(=O)(=O)Nc1ccc(F)c(C(=O)c2c[nH]c3ncc(Cl)cc23)c1F [PLX4720]

effect on BRET produced by the KSR1KD/MEK1 pair (KSR1KD / MEK1): does not alter
effect on BRAF kinase domain dimerization relative to apo state [2]: promoted dimerization
BRAF homodimerization by co-immunoprecipitation (BRAF/BRAF dimers): induced BRAF homodimerization
effect on CRAFKD/BRAFKD BRET signal (CRAFKD / BRAFKD [5]): induces
rank among inducers of CRAFKD/BRAFKD dimerization in HTS (CRAFKD / BRAFKD [6]): most potent inducer
effect of T529M gatekeeper mutant on inhibitor-induced BRAFKD homodimerization [7]: reduces
BRAF/CRAF dimerization by co-immunoprecipitation (BRAF/CRAF dimers): increased BRAF/CRAF dimerization
SMILES: Oc1ccc(-c2nc(-c3ccncc3)c(-c3ccc(F)cc3)[nH]2)cc1 [SB202190]
ERK activity in RAF transfected cells (ERK phosphorylation): stimulated ERK activity
